Assay results reported in PubChem BioAssay AID248 (DTP/NCI, 2004).
Inconclusive results and toxic doses are left out. Rule as the data show it: active = T/C of 150% or more; inactive = T/C below 125%.

Test system: L1210 leukemia ip in BDF1 mice, survival T/C
Test: NCI In Vivo Anticancer Drug Screen. Data for tumor model L1210 Leukemia (intraperitoneal) in B6D2F1 (BDF1) mice
Settings: endpoint: mean survival time, higher = longer survival
In short: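 Value reflects the ratio of survival in compound-treated mice to survival in vehicle-treated controls, with both groups carrying the same transplanted tumor.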

[1] = dose: 100.0 mg/kg/injection, schedule: Q01DX001 (ip), vehicle: saline
[2] = dose: 200.0 mg/kg/injection, schedule: Q01DX001 (ip), vehicle: saline
[3] = dose: 400.0 mg/kg/injection, schedule: Q01DX001 (ip), vehicle: saline
[4] = dose: 100.0 mg/kg/injection, schedule: Q04DX003 (ip), vehicle: saline with Tween-80
[5] = dose: 200.0 mg/kg/injection, schedule: Q01DX009 (ip), vehicle: saline with Tween-80
[6] = dose: 200.0 mg/kg/injection, schedule: Q04DX003 (ip), vehicle: saline with Tween-80
[7] = dose: 400.0 mg/kg/injection, schedule: Q04DX003 (ip), vehicle: saline with Tween-80
[8] = dose: 100.0 mg/kg/injection, schedule: Q01DX009 (ip), vehicle: Klucel (hydroxypropylcellulose) (HPC)
[9] = dose: 200.0 mg/kg/injection, schedule: Q01DX009 (ip), vehicle: Klucel (hydroxypropylcellulose) (HPC)
[10] = dose: 400.0 mg/kg/injection, schedule: Q01DX009 (ip), vehicle: Klucel (hydroxypropylcellulose) (HPC)
[11] = dose: 100.0 mg/kg/injection, schedule: Q04DX003 (ip), vehicle: Klucel (hydroxypropylcellulose) (HPC)
[12] = dose: 200.0 mg/kg/injection, schedule: Q04DX003 (ip), vehicle: Klucel (hydroxypropylcellulose) (HPC)
[13] = dose: 400.0 mg/kg/injection, schedule: Q04DX003 (ip), vehicle: Klucel (hydroxypropylcellulose) (HPC)
[14] = dose: 100.0 mg/kg/injection, schedule: Q04DX003 (ip), vehicle: saline
[15] = dose: 200.0 mg/kg/injection, schedule: Q04DX003 (ip), vehicle: saline

Measured: T/C

CC(=O)Nc1c(I)cc(I)c(C(=O)O)c1I
inactive: dose: 100.0 mg/kg/injection, schedule: Q04DX003 (ip), vehicle: saline sonified 98 % of control | dose: 200.0 mg/kg/injection, schedule: Q04DX003 (ip), vehicle: saline sonified 101 % of control | dose: 400.0 mg/kg/injection, schedule: Q04DX003 (ip), vehicle: saline sonified 103 % of control

CN(C)CCOC(c1ccccc1)c1ccccc1 (tested in a mixture with another compound)
inactive: [1] 109 % of control | [2] 101 % of control | [3] 95 % of control

CN1C(=O)c2ccccc2NC(=O)C12OC2c1ccccc1 (stereo unspecified)
inactive: [1] 101 % of control | [2] 101 % of control | [3] 97 % of control

Cc1[nH]nc2c(=S)[nH]c(=O)[nH]c12
inactive: dose: 75.0 mg/kg/injection, schedule: Q01DX001 (ip), vehicle: saline 92 % of control | dose: 150.0 mg/kg/injection, schedule: Q01DX001 (ip), vehicle: saline 96 % of control

O=C1c2cc(N=C(NO)C(F)(F)F)ccc2-c2ccc([N+](=O)[O-])cc21
inactive: dose: 100.0 mg/kg/injection, schedule: Q01DX001 (ip), vehicle: carboxymethylcellulose (CMC) 90 % of control | dose: 200.0 mg/kg/injection, schedule: Q01DX001 (ip), vehicle: carboxymethylcellulose (CMC) 90 % of control | dose: 400.0 mg/kg/injection, schedule: Q01DX001 (ip), vehicle: carboxymethylcellulose (CMC) 100 % of control

CCOC(=O)C1C(=O)NC(=O)CC1C (stereo unspecified)
inactive: [4] 98 % of control | [5] 100 % of control | [6] 96 % of control | dose: 400.0 mg/kg/injection, schedule: Q01DX009 (ip), vehicle: saline with Tween-80 101 % of control | [7] 104 % of control

COC(=O)c1ccccc1NC(=O)c1cccc(Cl)c1
inactive: [8] 114 % of control | [9] 118 % of control | [10] 102 % of control

COP(=S)(N/N=C/c1ccccn1)OC
inactive: [4] 106 % of control | [6] 97 % of control | [7] 108 % of control

CC(=O)Nc1ccc(C=Nc2ccc3c(c2)Cc2ccccc2-3)cc1
inactive: [8] 91 % of control | [11] 94 % of control | [9] 87 % of control | [12] 90 % of control | [10] 86 % of control | [13] 89 % of control

COc1cccc2c1C(=O)c1c(O)c3c(c(O)c1C2=O)CC(O)(C(C)=O)CC3OC1CC(N)C(OC2CC(N)C(O)C(C)O2)C(C)O1 (stereo unspecified)
inactive: dose: 0.65 mg/kg/injection, schedule: Q01DX009 (ip), vehicle: saline 111 % of control | dose: 1.25 mg/kg/injection, schedule: Q01DX009 (ip), vehicle: saline 117 % of control | dose: 10.0 mg/kg/injection, schedule: Q01DX009 (ip), vehicle: saline 89 % of control

CC1C(=O)OC2C1CCC1(C)C=CC(=O)C3(C)OC213 (stereo unspecified)
inactive: dose: 100.0 mg/kg/injection, schedule: Q01DX001 (ip), vehicle: Klucel (hydroxypropylcellulose) (HPC) 97 % of control | dose: 200.0 mg/kg/injection, schedule: Q01DX001 (ip), vehicle: Klucel (hydroxypropylcellulose) (HPC) 94 % of control | dose: 400.0 mg/kg/injection, schedule: Q01DX001 (ip), vehicle: Klucel (hydroxypropylcellulose) (HPC) 96 % of control

O=NN(Cc1ccc(Cl)cc1)Nc1ncc[nH]1
inactive: dose: 100.0 mg/kg/injection, schedule: Q04DX002 (ip), vehicle: Klucel (hydroxypropylcellulose) (HPC) 101 % of control | dose: 200.0 mg/kg/injection, schedule: Q04DX002 (ip), vehicle: Klucel (hydroxypropylcellulose) (HPC) 96 % of control | dose: 400.0 mg/kg/injection, schedule: Q04DX002 (ip), vehicle: Klucel (hydroxypropylcellulose) (HPC) 93 % of control

CC(O)/C(=N/Nc1ccc([N+](=O)[O-])cc1[N+](=O)[O-])C(=O)O (stereo unspecified)
inactive: dose: 50.0 mg/kg/injection, schedule: Q01DX009 (ip), vehicle: Klucel (hydroxypropylcellulose) (HPC) 106 % of control | [8] 96 % of control | [11] 91 % of control | [9] 96 % of control | [12] 88 % of control

O=[N+]([O-])c1ccccc1C=Nc1ccccc1
inactive: dose: 100.0 mg/kg/injection, schedule: Q01DX009 (ip), vehicle: acetone 96 % of control | dose: 100.0 mg/kg/injection, schedule: Q04DX003 (ip), vehicle: acetone 106 % of control | dose: 200.0 mg/kg/injection, schedule: Q01DX009 (ip), vehicle: acetone 98 % of control | dose: 200.0 mg/kg/injection, schedule: Q04DX003 (ip), vehicle: acetone 97 % of control | dose: 400.0 mg/kg/injection, schedule: Q01DX009 (ip), vehicle: acetone 102 % of control | dose: 400.0 mg/kg/injection, schedule: Q04DX003 (ip), vehicle: acetone 101 % of control

O=C(Nc1ccc(Cl)cc1[N+](=O)[O-])c1ccc2ccccc2c1O
inactive: [8] 101 % of control | [9] 111 % of control | [10] 103 % of control

O=C(c1ccc([N+](=O)[O-])cc1)c1ccccn1
inactive: [8] 103 % of control | [11] 101 % of control | [9] 102 % of control | [12] 93 % of control | [10] 115 % of control | [13] 92 % of control

CC(=O)C(=O)N1Cc2cc3ccccc3nc2C1
inactive: [14] 115 % of control | [15] 102 % of control | dose: 400.0 mg/kg/injection, schedule: Q04DX003 (ip), vehicle: saline 102 % of control

Cc1ccc([I+]c2ccc(C)cc2)cc1
inactive: dose: 8.0 mg/kg/injection, schedule: Q04DX002 (ip), vehicle: saline 101 % of control | dose: 16.0 mg/kg/injection, schedule: Q04DX002 (ip), vehicle: saline 92 % of control | dose: 32.0 mg/kg/injection, schedule: Q04DX002 (ip), vehicle: saline 92 % of control

COc1cc([N+](=O)[O-])c(N)c([N+](=O)[O-])c1
inactive: dose: 50.0 mg/kg/injection, schedule: Q01DX001 (ip), vehicle: saline 96 % of control | [1] 108 % of control | [2] 96 % of control | [3] 93 % of control

N#CC(C#N)=Cc1c2ccccc2cc2ccccc12
inactive: [11] 94 % of control | [12] 91 % of control | [13] 112 % of control

CCCCC[n+]1ccc(C(N)=O)cc1
inactive: [14] 105 % of control | [15] 100 % of control

CCOC(=O)N1CCN(C(=O)OCC)CC1
inactive: dose: 50.0 mg/kg/injection, schedule: Q01DX009 (ip), vehicle: saline with Tween-80 95 % of control | dose: 100.0 mg/kg/injection, schedule: Q01DX009 (ip), vehicle: saline with Tween-80 95 % of control | [5] 95 % of control

CN(C)CCS(=O)(=O)c1ccc(Cl)cc1
inactive: dose: 100.0 mg/kg/injection, schedule: Q04DX002 (ip), vehicle: saline 102 % of control | dose: 200.0 mg/kg/injection, schedule: Q04DX002 (ip), vehicle: saline 109 % of control | dose: 400.0 mg/kg/injection, schedule: Q04DX002 (ip), vehicle: saline 98 % of control
